Active and inactive are the calls of the source. The calls are words filed in the database; no cut-off is given here.
Tests used:
MDA-MB-231 [1] = experiment: Induction of apoptosis in human MDA-MB-231 cells after 24 hrs using propidium iodide by flow cytometry; assay type: functional, cell-based
[2] = target: Actin, cytoplasmic 1 (Homo sapiens) (UniProt P60709); experiment: Inhibition of actin organization in human MDA-MB-231 cells transfected with GFP-tagged human beta-actin assessed as reduction of actin stress fibers at 100 nM after 24 hrs by FRAP method; assay type: cell-based
[3] = target: Actin, cytoplasmic 1 (Homo sapiens) (UniProt P60709); experiment: Inhibition of actin organization in human MCF7 cells transfected with GFP-tagged human beta-actin assessed as formation of actin aggregates at 300 to 500 nM after 24 hrs by FRAP method; assay type: cell-based
[4] = target: Actin, cytoplasmic 1 (Homo sapiens) (UniProt P60709); experiment: Inhibition of actin organization in human MCF7 cells transfected with GFP-tagged human beta-actin assessed as reduction of actin stress fibers at 100 nM after 24 hrs by FRAP method; assay type: cell-based
MDA-MB-231 [5] = experiment: Induction of apoptosis in human MDA-MB-231 cells assessed as reduction of pro-caspase9 level after 48 hrs by Western blot analysis; assay type: functional, cell-based
MCF7 [6] = experiment: Induction of apoptosis in human MCF7 cells assessed as PARP cleavage after 48 hrs by Western blot analysis; assay type: functional, cell-based
MDA-MB-231 [7] = experiment: Antimigratory activity against human MDA-MB-231 cells up to 10 hrs; assay type: functional, cell-based
MCF7 [8] = experiment: Induction of apoptosis in human MCF7 cells assessed as reduction of pro-caspase9 level after 48 hrs by Western blot analysis; assay type: functional, cell-based
[9] = target: Actin, cytoplasmic 1 (Homo sapiens) (UniProt P60709); experiment: Inhibition of actin organization in human MCF7 cells transfected with GFP-tagged human beta-actin assessed as formation of actin aggregates at 300 nM after 30 mins by FRAP method; assay type: cell-based
[10] = target: Actin, cytoplasmic 1 (Homo sapiens) (UniProt P60709); experiment: Inhibition of actin organization in human MCF7 cells transfected with GFP-tagged human beta-actin assessed as reduction of g-actin monomers at 100 nM after 30 mins by FRAP method; assay type: cell-based
[11] = target: Actin, cytoplasmic 1 (Homo sapiens) (UniProt P60709); experiment: Inhibition of actin organization in human MDA-MB-231 cells transfected with GFP-tagged human beta-actin assessed as formation of actin aggregates at 300 to 500 nM after 24 hrs by FRAP method; assay type: cell-based
MCF7 [12] = experiment: Antiproliferative activity against human MCF7 cells after 72 hrs by CellTiter-Blue assay; assay type: functional, cell-based
MDA-MB-231 [13] = experiment: Antiproliferative activity against human MDA-MB-231 cells after 72 hrs by CellTiter-Blue assay; assay type: functional, cell-based
MCF7 [14] = experiment: Induction of apoptosis in human MCF7 cells after 24 hrs using propidium iodide by flow cytometry; assay type: functional, cell-based
MDA-MB-231 [15] = experiment: Induction of apoptosis in human MDA-MB-231 cells assessed as PARP cleavage after 48 hrs by Western blot analysis; assay type: functional, cell-based

Compound: CC(C)[C@@H]1C[C@H](O)[C@H](C)C[C@H](C)C[C@H](C)C(=O)NCC(=O)N(C)[C@H](Cc2ccc(O)c(I)c2)C(=O)O1
- Activity (MDA-MB-231 [1]): Dose-dependent effect
- inhibition [2]: Active
- inhibition [3]: Active
- inhibition [4]: Active
- Activity (MDA-MB-231 [5]): Dose-dependent effect
- Activity (MCF7 [6]): Active
- inhibition (MDA-MB-231 [7]): Dose-dependent effect
- Activity (MCF7 [8]): Dose-dependent effect
- inhibition [9]: Active
- inhibition [10]: Active
- inhibition [11]: Active
- inhibition (MCF7 [12]): Dose-dependent effect
- IC50 (MCF7 [12]; MCF7, 72 h): 93 nM
- inhibition (MDA-MB-231 [13]): Dose-dependent effect
- IC50 (MDA-MB-231 [13]; MDA-MB-231, 72 h): 77 nM
- Activity (MCF7 [14]): Dose-dependent effect
- Activity (MDA-MB-231 [15]): Active

Reference: ChEMBL document CHEMBL3352066, “Pharmacological characterization of actin-binding (-)-doliculide” (Bioorg Med Chem, 2014)
